ChEMBL document CHEMBL1201862, “PubChem BioAssay data set” (2004)
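A five-concentration, 48-hour dose response in 96-well plates underlies each endpoint, interpolated linearly between surrounding concentrations. Here, GI50 denotes the concentration required for 50% inhibition of growth.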 The source made the active and inactive calls. Rule as the data show it: active = GI50 up to about 1.1 µM and inactive = higher.

Experiments:
Assay in all cases: inhibition of tumour cell growth, NCI panel, 48 h
ACHN = tested on: ACHN
HCT-116 = tested on: HCT-116
IGROV-1 = tested on: IGROV-1
LOX IMVI = tested on: LOX IMVI
MDA-N = tested on: MDA-N
NCI-H226 = tested on: NCI-H226
NCI/ADR-RES = tested on: NCI/ADR-RES
OVCAR-5 = tested on: OVCAR-5
RPMI-8226 = tested on: RPMI-8226
SF-268 = tested on: SF-268
SK-MEL-2 = tested on: SK-MEL-2
SNB-19 = tested on: SNB-19
TK-10 = tested on: TK-10
U-251 = tested on: U-251
UACC-257 = tested on: UACC-257
HL-60 = tested on: HL-60
NCI-H522 = tested on: NCI-H522
SF-539 = tested on: SF-539

SMILES	GI50 (ACHN)	GI50 (HCT-116)	GI50 (IGROV-1)	GI50 (LOX IMVI)	GI50 (MDA-N)	GI50 (NCI-H226)	GI50 (NCI/ADR-RES)	GI50 (OVCAR-5)	GI50 (RPMI-8226)	GI50 (SF-268)	GI50 (SK-MEL-2)	GI50 (SNB-19)	GI50 (TK-10)	GI50 (U-251)	GI50 (UACC-257)	GI50 (HL-60)	GI50 (NCI-H522)	GI50 (SF-539)
O=C1/C(=C/c2ccco2)NC(=S)N1CN1CCOCC1	> 100 µM (inactive)	> 100 µM (inactive)	> 100 µM (inactive)	> 100 µM (inactive)	> 100 µM (inactive)	> 100 µM (inactive)	> 100 µM (inactive)	> 100 µM (inactive)	> 100 µM (inactive)	> 100 µM (inactive)	> 100 µM (inactive)	> 100 µM (inactive)	> 100 µM (inactive)	> 100 µM (inactive)	> 100 µM (inactive)			
[N-]=[N+]=CC(=O)OCCCCl	> 100 µM (inactive)	> 100 µM (inactive)	> 100 µM (inactive)	> 100 µM (inactive)	> 100 µM (inactive)	> 100 µM (inactive)		> 100 µM (inactive)	> 100 µM (inactive)	> 100 µM (inactive)	> 100 µM (inactive)	> 100 µM (inactive)	> 100 µM (inactive)	> 100 µM (inactive)	> 100 µM (inactive)	> 100 µM (inactive)	> 100 µM (inactive)	
O=C(O)c1ccccc1-c1ccccc1C(=O)Nc1ccc2c(c1)Cc1cc(F)ccc1-2	21.2 µM (inactive)	16 µM (inactive)	34 µM (inactive)	19.7 µM (inactive)	23.6 µM (inactive)	30.5 µM (inactive)	36.5 µM (inactive)	30.8 µM (inactive)	31.5 µM (inactive)	43.6 µM (inactive)	18.8 µM (inactive)	36.4 µM (inactive)	28.9 µM (inactive)	21.3 µM (inactive)	22.1 µM (inactive)		24.3 µM (inactive)	29.5 µM (inactive)
CNn1c(C)n[nH]c1=O	> 100 µM (inactive)	> 100 µM (inactive)	> 100 µM (inactive)	> 100 µM (inactive)		> 100 µM (inactive)	> 100 µM (inactive)	> 100 µM (inactive)	> 100 µM (inactive)	> 100 µM (inactive)	> 100 µM (inactive)	> 100 µM (inactive)	> 100 µM (inactive)	> 100 µM (inactive)	> 100 µM (inactive)	> 100 µM (inactive)	> 100 µM (inactive)	> 100 µM (inactive)
CC1C(c2ccc(Cl)cc2)c2cc3c(cc2OC1N1CCOCC1)OCO3 (configuration not stated)	35.3 µM (inactive)	95.1 µM (inactive)	> 100 µM (inactive)	> 100 µM (inactive)	> 100 µM (inactive)		> 100 µM (inactive)	> 100 µM (inactive)	34.1 µM (inactive)	> 100 µM (inactive)	69.7 µM (inactive)	80.9 µM (inactive)	> 100 µM (inactive)		86.1 µM (inactive)		46.3 µM (inactive)	45 µM (inactive)
C=C1CC(C#N)(C#N)[C@@H]2CC3CCCC3[C@H]12.C=C1CC(C#N)(C#N)[C@H]2C3CCCC3C[C@@H]12 (some centres not stated)	24.8 µM (inactive)	4.99 µM (inactive)	27.9 µM (inactive)			25.3 µM (inactive)	23.9 µM (inactive)	10 µM (inactive)		23.3 µM (inactive)		29.8 µM (inactive)	35.1 µM (inactive)	20 µM (inactive)		20.5 µM (inactive)		19.9 µM (inactive)
CCOC(=O)/C(C(N)=O)=C(O)/C(O)=C/C(=O)c1ccc(Cl)cc1	20 µM (inactive)	14.1 µM (inactive)	18 µM (inactive)	16.3 µM (inactive)	14.8 µM (inactive)	23.2 µM (inactive)	21.4 µM (inactive)	23.5 µM (inactive)	19.8 µM (inactive)	20.6 µM (inactive)	18.5 µM (inactive)	33.3 µM (inactive)	8.63 µM (inactive)	15.6 µM (inactive)	16 µM (inactive)		16.2 µM (inactive)	
CCOC(=O)C1=C(c2ccccc2)N(C)c2ccccc2S1	24.1 µM (inactive)	25.2 µM (inactive)	32.4 µM (inactive)	16.7 µM (inactive)		21.7 µM (inactive)	22.3 µM (inactive)	35.1 µM (inactive)	17 µM (inactive)	29.4 µM (inactive)	23.2 µM (inactive)	69.5 µM (inactive)	46.5 µM (inactive)	19.8 µM (inactive)	31.6 µM (inactive)	37.4 µM (inactive)	25.6 µM (inactive)	37.2 µM (inactive)
COc1ccc2c(c1)CC1Cc3cc(OC)c(OC)cc3CN1CC2 (configuration not stated)	21.5 µM (inactive)	23.5 µM (inactive)	17.3 µM (inactive)	23.5 µM (inactive)		21.7 µM (inactive)	31.8 µM (inactive)	56 µM (inactive)	25.8 µM (inactive)	82.2 µM (inactive)	70.1 µM (inactive)	35.3 µM (inactive)	22.2 µM (inactive)	49.5 µM (inactive)	33.8 µM (inactive)	11.1 µM (inactive)	34.6 µM (inactive)	
CCc1nc(N)nc(N)c1-c1ccc(Cl)c(Cl)c1 [ETOPRINE]	2.86 µM (inactive)	0.574 µM (active)	2.96 µM (inactive)	3.51 µM (inactive)			1.47 µM (inactive)	7.06 µM (inactive)	9.71 µM (inactive)	6.62 µM (inactive)	23.4 µM (inactive)	25.2 µM (inactive)	36.1 µM (inactive)	2.79 µM (inactive)	8.38 µM (inactive)	> 100 µM (inactive)	5.81 µM (inactive)	5.16 µM (inactive)
O=C1CCCc2ccc3c(c21)CC1(Cc2ccccc2C1)C3	12.2 µM (inactive)	23 µM (inactive)	50.9 µM (inactive)	30.6 µM (inactive)	19 µM (inactive)	13.3 µM (inactive)	50.6 µM (inactive)	31 µM (inactive)	16.9 µM (inactive)		> 100 µM (inactive)		69.5 µM (inactive)	41.8 µM (inactive)	21.4 µM (inactive)		23.9 µM (inactive)	31.6 µM (inactive)
Nc1ccc(C(=O)Nn2c(-c3ccccc3)nc3ccccc3c2=O)cc1	> 100 µM (inactive)	> 100 µM (inactive)	> 100 µM (inactive)	> 100 µM (inactive)	> 100 µM (inactive)	> 100 µM (inactive)		> 100 µM (inactive)	> 100 µM (inactive)	> 100 µM (inactive)		> 100 µM (inactive)	> 100 µM (inactive)	> 100 µM (inactive)	> 100 µM (inactive)	> 100 µM (inactive)	> 100 µM (inactive)	> 100 µM (inactive)
O=S(=O)(F)Cc1ccccc1 [PHENYLMETHYLSULFONYLFLUORIDE]	> 100 µM (inactive)	> 100 µM (inactive)	> 100 µM (inactive)	> 100 µM (inactive)	> 100 µM (inactive)	> 100 µM (inactive)	> 100 µM (inactive)	> 100 µM (inactive)	> 100 µM (inactive)	> 100 µM (inactive)	> 100 µM (inactive)	> 100 µM (inactive)	> 100 µM (inactive)	> 100 µM (inactive)	> 100 µM (inactive)		39.1 µM (inactive)	> 100 µM (inactive)
CSC1NC(c2ccc(Cl)cc2)=C(C#N)C(=O)N1C1OCC(OC(C)=O)C(OC(C)=O)C1OC(C)=O (configuration not stated)	> 100 µM (inactive)		> 100 µM (inactive)	> 100 µM (inactive)	> 100 µM (inactive)	> 100 µM (inactive)	> 100 µM (inactive)	> 100 µM (inactive)	> 100 µM (inactive)	> 100 µM (inactive)		> 100 µM (inactive)	> 100 µM (inactive)	> 100 µM (inactive)	> 100 µM (inactive)		> 100 µM (inactive)	67.3 µM (inactive)
O=C(OC(=C(c1ccccc1)c1ccccc1)N1CCCC1=S)C(c1ccccc1)c1ccccc1	5.07 µM (inactive)	4.12 µM (inactive)	> 10 µM (inactive)	3.17 µM (inactive)		4.78 µM (inactive)	5.87 µM (inactive)	> 10 µM (inactive)	7.55 µM (inactive)	> 10 µM (inactive)	> 10 µM (inactive)	> 10 µM (inactive)	> 10 µM (inactive)	6.32 µM (inactive)	> 10 µM (inactive)	> 10 µM (inactive)		> 10 µM (inactive)
CCCCCCCCCCCCCCCCCCNC(=S)N/C=C1/C(=O)C=C(C)OC1=O	22.9 µM (inactive)	30.1 µM (inactive)	16.9 µM (inactive)	36.9 µM (inactive)	36.4 µM (inactive)	32.9 µM (inactive)	28.6 µM (inactive)	18.4 µM (inactive)			21.4 µM (inactive)	20.4 µM (inactive)	19.2 µM (inactive)	31.3 µM (inactive)	27.5 µM (inactive)	3.31 µM (inactive)		24.3 µM (inactive)
Nc1nc2cc(Cl)ccc2n1N	> 100 µM (inactive)	> 100 µM (inactive)	> 100 µM (inactive)	> 100 µM (inactive)	> 100 µM (inactive)	> 100 µM (inactive)		> 100 µM (inactive)	> 100 µM (inactive)	> 100 µM (inactive)		> 100 µM (inactive)	> 100 µM (inactive)	> 100 µM (inactive)	> 100 µM (inactive)	> 100 µM (inactive)	> 100 µM (inactive)	> 100 µM (inactive)
